These results are taken from US4350702A, “Method of inhibiting platelet aggregation” (Beecham Group Limited, priority 1975, dated 1982).

Where a name gives a salt, the structure may show the parent alone.

The term inhibition denotes the share of the control response that was lost under treatment.

The subject of one experiment is platelet aggregation in response to collagen (human platelet-rich plasma). The experiment can be described thus: Inhibition of collagen-induced platelet aggregation in vitro (human platelet-rich plasma, photometric aggregometer). The note with it: 0.05 h, final concentration 100 μM, human PRP, 37°, 3 min incubation before collagen, just-maximal collagen dose, read-out: % Inhibition of the platelet aggregation response to collagen. It counts as cell-based. The procedure:
The compounds of the Examples above were tested for their ability to inhibit platelet aggregation in vitro as follows:
Platelet-rich-plasma (PRP) is prepared by centrifuging the anti-coagulated blood at 180 g., for 12 minutes, at room temperature. Collagen (3×-bovine achilles tendon) is suspended in 0.9% (w/v) saline, using a commercially available mixer emulsifier. PRP was mixed with 0.1 volumes saline (control) or compound dissolved in saline and incubated at 37° for 3 minutes, before the addition of collagen. Water-insoluble compounds were added to PRP, dissolved in 0.005 volumes dimethylformamide, the solvent being included in controls when appropriate. The final concentration of each compound was 100 μM.
The activity of each compound was expressed as percentage inhibition of the aggregation response to a dose of collagen producing a just-maximal change in light transmission in control PRP.
For `O=c1c2cc(Cl)ccc2sn1CCc1ccccn1` [Example 1, 5-Chloro-2[β-(2-pyridyl)ethyl]-1,2-benzisothiazol-3-one hydrochloride], the inhibition at 100 µM was found to be 100%. For the compound `O=c1c2ccccc2sn1CCCCCCN1CC2CCC(CC2)C1` [Example 2, 2-[6-(3-azabicyclo[3.2.2]non-3-yl)-hexyl]-1,2-benzisothiazlol-3-one hydrochloride], the inhibition at 100 µM stood at 100%.

For `COc1cc2sn(CCc3ccccn3)c(=O)c2cc1OC` [Example 3, 5,6-Dimethoxy-2[β-(2-pyridyl)ethyl]-1,2-benzisothiazol-3-one], the inhibition at 100 µM was 100%. Same read-out and setting: the same measure for `O=c1c2ccccc2sn1CNc1ccccn1` [Example 4, 2-[2'-Pyridylaminomethyl]-1,2-benzisothiazol-3-one]: 100%; for `O=c1c2ccccc2sn1N1CCOCC1` [Example 5, 2-(morpholino)-1,2-benzisothiazol-3-one]: 100%; for `O=c1c2cc(Cl)ccc2sn1-c1ccccn1` [Example 6]: 100%. For `O=c1c2cc(Cl)ccc2sn1-c1ncccn1` [Example 7], the inhibition at 100 µM worked out at 100%. Take `O=c1c2ccccc2sn1CCc1ccccn1` [Example 9, 2-(β-2'-pyridylethyl)-1,2-benzisothiazol-3-one hydrochloride]: the inhibition at 100 µM was determined as 100%. As to `Cc1ccc2sn(CCc3ccccn3)c(=O)c2c1` [Example 10, 5-methyl-2-(β-2'-pyridylethyl)-1,2-benzisothiazol-3-one hydrochloride], the inhibition at 100 µM worked out at 100%. Same read-out and setting: the same measure for `O=c1c2ccc(Cl)cc2sn1CCc1ccccn1` [Example 11, 6-chloro-2-(β-2'-pyridylethyl)-1,2-benzisothiazol-3-one hydrochloride]: 100%. `O=c1c2cc(Cl)c(Cl)cc2sn1CCc1ccccn1` [Example 12]: the inhibition at 100 µM is 100%. In the case of `O=c1c2ccccc2sn1CCN1CC2CCC(CC2)C1` [Example 13, 2-β-(3-azabicyclo[3.2.2]non-3-yl)ethyl-1,2-benzisothiazol-3-one hydrochloride], the inhibition at 100 µM worked out at 100%. Still for that read-out and setting: the same measure for `O=c1c2cc(Cl)c(Cl)cc2sn1CCN1CC2CCC(CC2)C1` [Example 14, 5,6-dichloro-2-β-(3-azabicyclo[3.2.2]non-3-yl)ethyl-1,2-benzisothiazol-3-one]: 100%. For `COc1cc2sn(CCN3CC4CCC(CC4)C3)c(=O)c2cc1OC` [Example 15, 5,6-dimethoxy-2-β-(3-azabicyclo[3.2.2]non-3-yl)ethyl 1,2-benzisothiazol-3-one], the inhibition at 100 µM worked out at 92%.

In the case of `O=c1c2cc(Cl)c(Cl)cc2sn1CCN1CCCC1` [Example 16, 5,6-dichloro-2-β-(1-pyrrolidinyl)ethyl-1,2-benzisothiazol-3-one], the inhibition at 100 µM turned out to be 100%.

In the case of `COc1cc2sn(CCN3CCCC3)c(=O)c2cc1OC` [Example 18], the inhibition at 100 µM stood at 91%. In the case of `O=c1c2ccccc2sn1CCN1CCCCCC1` [Example 19, 2-β-(homopiperidin-1-yl)ethyl-1,2-benzisothiazol-3-one hydrochloride], the inhibition at 100 µM came out at 92%. The same measure, in the same setting: the same measure for `O=c1c2ccccc2sn1CCN1CCc2ccccc2C1` [Example 20, 2-β-(N-tetrahydroisoquinolylethyl)-1,2-benzisothiazol-3-one hydrochloride]: 100%.

`O=c1c2ccccc2sn1CCn1sc2ccccc2c1=O` [Example 21, 1,2-bis(1,2-benzisothiazol-3-on-2-yl)ethane]: the inhibition at 100 µM is 91%.

As to `O=c1c2ccccc2sn1CNc1ccncc1` [Example 23, 2-[4'-pyridylaminomethyl]-1,2-benzisothiazol-3-one], the inhibition at 100 µM was determined as 23%. Same read-out and setting: the same measure for `CC1CCCCN1CCn1sc2ccccc2c1=O` (stereo not shown) [Example 27]: 100%.

The same experiment, now with this note: Homo sapiens, 0.05 h, read-out: % Inhibition of the platelet aggregation response to collagen.
For the compound `O=c1c2ccccc2sn1-c1nccs1` [Example 8, 2-(thiazol-2-yl)-1,2-benzisothiazol-3-one], the inhibition at 100 µM was found to be 100%.
